According to ChEMBL document CHEMBL5244248, “A novel long-acting oxyntomodulin analogue eliminates diabetes and obesity in mice” (Eur J Med Chem, 2020):

Test system: INS1
Test: Anti-apoptotic activity in rat INS1 cells assessed as reduction in cytokine-induced cell apoptosis at 100 nM treated for 1 hr prior to TNF-alpha and IL-1beta challenge
Type: functional

Work on `CC[C@H](C)[C@H](NC(=O)[C@H](Cc1ccccc1)NC(=O)[C@H](CCC(=O)O)NC(=O)[C@H](CCCCN)NC(=O)[C@H](C)NC(=O)[C@H](C)NC(=O)[C@H](CCC(N)=O)NC(=O)CNC(=O)[C@H](CCC(=O)O)NC(=O)[C@H](CC(C)C)NC(=O)[C@H](Cc1ccc(O)cc1)NC(=O)[C@H](CO)NC(=O)[C@H](CO)NC(=O)[C@@H](NC(=O)[C@H](CC(=O)O)NC(=O)[C@H](CO)NC(=O)[C@@H](NC(=O)[C@H](Cc1ccccc1)NC(=O)[C@@H](NC(=O)CNC(=O)[C@H](CCC(=O)O)NC(=O)[C@H](C)NC(=O)[C@@H](N)Cc1cnc[nH]1)[C@@H](C)O)[C@@H](C)O)C(C)C)C(=O)N[C@@H](C)C(=O)N[C@@H](Cc1c[nH]c2ccccc12)C(=O)N[C@@H](CC(C)C)C(=O)N[C@H](C(=O)N[C@@H](CCCCN)C(=O)NCC(=O)N[C@@H](CCCNC(=N)N)C(=O)O)C(C)C` yielded an inhibition at 0.1 µM of 40.4%.
